In patent US6706663B2, “Herbicidal 3-heterocyclic substituted benzisothiazole and benzisoxazole compounds” (Wyeth, priority 2000, dated 2004):

Key:
SETVI (Setaria viridis) [1] = assay: Postemergence herbicidal evaluation; format: in vivo, (L.) Beau; settings: rate 0.0620 kg/ha
In short: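 Visual injury score (0-9: stand, vigor, malformation, size, chlorosis, overall appearance vs untreated control) taken four to five weeks post-spray. Two-week-old seedlings received about 0.0040 to 1.000 kg/ha active compound in acetone/water with 0.5% TWEEN 20.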

[2] = system: CHEAL (Chenopodium album); assay: Preemergence herbicidal evaluation; format: in vivo, L.; settings: Rate 0.2500 kg/ha; preemergence; rated 4-5 weeks after treatment
In short: (§1)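 Steps: mix seeds with potting soil; plant on ~1 inch soil per cup; spray compound in aqueous acetone; hold on greenhouse benches with routine watering; rate 0–9 visually against control at 4–5 weeks.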

[3] = system: CASOB (Cassia obtusifolia); assay: Preemergence herbicidal evaluation; format: in vivo, L.; settings: Rate 0.2500 kg/ha; preemergence; rated 4-5 weeks after treatment
In short: as §1

[4] = system: AMBEL (Ambrosia artemisifolia); assay: Preemergence herbicidal evaluation; format: in vivo, L.; settings: Rate 0.2500 kg/ha; preemergence; rated 4-5 weeks after treatment
In short: as §1

[5] = system: ECHORC (Echinochloa oryzoides); assay: Flooded paddy, preemergence weed control; format: in vivo, Echinochloa oryzoides (Ard.) Fritsch.; settings: rate 0.1250 kg/ha, rated 3-4 weeks after treatment, 0-9 rating scale
In short: (§2)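 In this preemergence paddy assay, weed seeds or organs are sown at up to 0.5 cm in silt loam and covered by 1.5–3 cm of water for the full test period. After treatment the pots are kept in a greenhouse, and herbicidal effect is rated 0-9 visually against a control.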

[6] = system: CHEAL (Chenopodium album); assay: Postemergence herbicidal evaluation; format: in vivo, L.; settings: rate 0.0620 kg/ha
In short: (§3)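 Visual 0–9 injury scores versus control plants, covering stand, vigour, malformation, size, chlorosis and general appearance, taken four to five weeks post-spray and averaged over replicate tests. Plants were sprayed at roughly two weeks old and held on greenhouse benches.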

[7] = system: CASOB (Cassia obtusifolia); assay: Postemergence herbicidal evaluation; format: in vivo, L.; settings: rate 0.0620 kg/ha
In short: as §3

[8] = system: AMBEL (Ambrosia artemisifolia); assay: Postemergence herbicidal evaluation; format: in vivo, L.; settings: rate 0.0620 kg/ha
In short: as §3

[9] = system: SAGPY (Sagittaria pygmaea); assay: Flooded paddy, preemergence weed control; format: in vivo, L.; settings: rate 0.1250 kg/ha, rated 3-4 weeks after treatment, 0-9 rating scale
In short: as §2

[10] = system: ABUTH (Abutilon theophrasti); assay: Preemergence herbicidal evaluation; format: in vivo, Medic.; settings: Rate 0.2500 kg/ha; preemergence; rated 4-5 weeks after treatment
[11] = system: TRZAWR (Wheat, Winter, cv Riband); assay: Preemergence herbicidal evaluation; format: in vivo, Triticum aestivum; settings: Rate 0.2500 kg/ha; preemergence; rated 4-5 weeks after treatment
In short: as §1

[12] = system: CYPSE (Cyperus serotinus); assay: Flooded paddy, preemergence weed control; format: in vivo, Rottb.; settings: rate 0.1250 kg/ha, rated 3-4 weeks after treatment, 0-9 rating scale
Protocol: Results of herbicide evaluation are expressed on a rating scale (0-9). The scale is based upon a visual observation of plant stand, vigor, malformation, size, chlorosis and overall plant appearance as compared with a control.
Preemergence herbicidal activity under flooded paddy conditions is determined as follows: plant seeds or propagating organs are planted in the top 0.5 cm of silt loam soil in 32 oz. plastic containers with a diameter of 10.5 cm and no drainage holes. Water is added to these containers and maintained at 1.5 to 3 cm above the soil surface for the duration of the experiment. The test compounds are applied as aqueous/acetone mixtures 50/50 v/v pipetted directly into the flood water to give the equivalent of about 0.0080 to 0.1250 kg/ha of active ingredient. The treated containers are placed on greenhouse benches and cared for in accordance with conventional greenhouse procedures. Three to four weeks after treatment, the test is terminated and each container is examined and herbicidal effect rated according to the rating system provided in Example 87.

[13] = system: GLXMAW (Soybean, Williams); assay: Postemergence herbicidal evaluation; format: in vivo, Glycine max, (L.) Merr. cv Williams; settings: rate 0.0620 kg/ha
In short: as §3

[14] = system: ECHCG (Echinochloa crus-galli); assay: Postemergence herbicidal evaluation; format: in vivo, (L.) Beau; settings: rate 0.0620 kg/ha
In short: as §3

[15] = system: ABUTH (Abutilon theophrasti); assay: Postemergence herbicidal evaluation; format: in vivo, Medic.; settings: rate 0.0620 kg/ha
In short: as §3

GALAP (Galium aparine) [16] = assay: Preemergence herbicidal evaluation; format: in vivo; settings: Rate 0.2500 kg/ha; preemergence; rated 4-5 weeks after treatment
In short: as §1

CYPIR (Cyperus iria) = assay: Flooded paddy, preemergence weed control; format: in vivo; settings: rate 0.1250 kg/ha, rated 3-4 weeks after treatment, 0-9 rating scale
In short: as §2

[17] = system: IPOHE (Ipomoea hederacea); assay: Postemergence herbicidal evaluation; format: in vivo, (L.) Jacq.; settings: rate 0.0620 kg/ha
In short: as §3

ORYSAT (Rice, Tebonnet) [18] = assay: Postemergence herbicidal evaluation; format: in vivo, Oryza sativa, (L.) Tebonnet; settings: rate 0.0620 kg/ha
In short: as §3

[19] = system: GLXMAW (Soybean, Williams); assay: Preemergence herbicidal evaluation; format: in vivo, Glycine max, (L.) Merr. cv Williams; settings: Rate 0.2500 kg/ha; preemergence; rated 4-5 weeks after treatment
[20] = system: TRZAWR (Wheat, Winter, cv Riband); assay: Postemergence herbicidal evaluation; format: in vivo, Triticum aestivum; settings: rate 0.0620 kg/ha
In short: as §3

[21] = system: IPOHE (Ipomoea hederacea); assay: Preemergence herbicidal evaluation; format: in vivo, (L.) Jacq.; settings: Rate 0.2500 kg/ha; preemergence; rated 4-5 weeks after treatment
ORYSAT (Rice, Tebonnet) [22] = assay: Preemergence herbicidal evaluation; format: in vivo, Oryza sativa, (L.) Tebonnet; settings: Rate 0.2500 kg/ha; preemergence; rated 4-5 weeks after treatment
SETVI (Setaria viridis) [23] = assay: Preemergence herbicidal evaluation; format: in vivo, (L.) Beau; settings: Rate 0.2500 kg/ha; preemergence; rated 4-5 weeks after treatment
In short: as §1

[24] = system: ECHCG (Echinochloa crus-galli); assay: Preemergence herbicidal evaluation; format: in vivo, (L.) Beau; settings: Rate 0.2500 kg/ha; preemergence; rated 4-5 weeks after treatment
In short: as §1

ZEAMX (Corn, Field) [25] = assay: Preemergence herbicidal evaluation; format: in vivo, Zea mays, L.; settings: Rate 0.2500 kg/ha; preemergence; rated 4-5 weeks after treatment
ZEAMX (Corn, Field) [26] = assay: Postemergence herbicidal evaluation; format: in vivo, Zea mays, L.; settings: rate 0.0620 kg/ha
In short: as §3

[27] = system: MOOVA (Monochoria vaginalis); assay: Flooded paddy, preemergence weed control; format: in vivo, Presl.; settings: rate 0.1250 kg/ha, rated 3-4 weeks after treatment, 0-9 rating scale
In short: as §2

GALAP (Galium aparine) [28] = assay: Postemergence herbicidal evaluation; format: in vivo; settings: rate 0.0620 kg/ha
In short: as §3

ORYSAT (Rice, Tebonnet) [29] = assay: Flooded paddy, post-transplant rice tolerance; format: in vivo, Oryza sativa, (L.) Tebonnet; settings: flooded paddy, post-transplant rice; rate 0.1250 kg/ha; rated 3-4 weeks after treatment; 0-9 rating scale
In short: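 Steps: transplant two ten-day-old seedlings into silt loam; flood to 1.5-3 cm above soil; apply herbicide post-transplant; maintain water on greenhouse benches; rate stand, vigor, malformation, size and chlorosis on a 0-9 visual scale versus control.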

| Compound | Postemergence herbicidal rating, SETVI (SETVI (Setaria viridis) [1]) | CHEAL preemergence herbicidal rating [2] | CASOB preemergence herbicidal rating [3] | AMBEL preemergence herbicidal rating [4] | herbicidal rating, ECHORC [5] | Postemergence herbicidal rating, CHEAL [6] | Postemergence herbicidal rating, CASOB [7] | Postemergence herbicidal rating, AMBEL [8] | herbicidal rating, SAGPY [9] | ABUTH preemergence herbicidal rating [10] | TRZAWR preemergence herbicidal rating [11] | herbicidal rating, CYPSE [12] | Postemergence herbicidal rating, GLXMAW [13] | Postemergence herbicidal rating, ECHCG [14] | Postemergence herbicidal rating, ABUTH [15] | GALAP preemergence herbicidal rating (GALAP (Galium aparine) [16]) | herbicidal rating, CYPIR (CYPIR (Cyperus iria)) | Postemergence herbicidal rating, IPOHE [17] | Postemergence herbicidal rating, ORYSAT (ORYSAT (Rice, Tebonnet) [18]) | GLXMAW preemergence herbicidal rating [19] | other results |
| --- | --- | --- | --- | --- | --- | --- | --- | --- | --- | --- | --- | --- | --- | --- | --- | --- | --- | --- | --- | --- | --- |
| Cn1c(C(F)(F)F)cc(=O)n(-c2ccc3snc(-c4cccnc4)c3c2)c1=O [Compound 11, 1-methyl-3-[3-(3-pyridyl)-1,2-benzisothiazol-5-yl]-6-(trifluoromethyl)uracil] | 7.0 | 9.0 | 9.0 | 9.0 | 5.0 | 8.0 | 1.0 | 9.0 | 0.0 | 9.0 | 4.0 | 0.0 | 6.5 | 0.0 | 9.0 | 9.0 | 9.0 | 9.0 | 3.5 | 7.5 | Postemergence herbicidal rating, TRZAWR [20]: 3.5; IPOHE preemergence herbicidal rating [21]: 7.0; ORYSAT preemergence herbicidal rating (ORYSAT (Rice, Tebonnet) [22]): 5.0; SETVI preemergence herbicidal rating (SETVI (Setaria viridis) [23]): 9.0; ECHCG preemergence herbicidal rating [24]: 8.0; ZEAMX preemergence herbicidal rating (ZEAMX (Corn, Field) [25]): 5.5; Postemergence herbicidal rating, ZEAMX (ZEAMX (Corn, Field) [26]): 5.5; herbicidal rating, MOOVA [27]: 9.0; Postemergence herbicidal rating, GALAP (GALAP (Galium aparine) [28]): 6.0; herbicidal rating, ORYSAT (rice tolerance) (ORYSAT (Rice, Tebonnet) [29]): 3.0 |
| C[C@@H]1O[C@@H]1c1nsc2ccc(-n3c(=O)cc(C(F)(F)F)n(C)c3=O)cc12 [Compound 13, 3-[3-[(1R,2S)-1,2-epoxypropyl]-1,2-benzisothiazol-5-yl]-1-methyl-6-(trifluoromethyl)uracil] | 7.0 | 9.0 | 9.0 | 9.0 | 6.0 | 6.0 | 5.0 | 9.0 | 4.0 | 9.0 | 5.0 | 6.5 | 7.0 | 3.0 | 9.0 | 9.0 | 8.0 | 7.0 | 3.0 | 7.5 | Postemergence herbicidal rating, TRZAWR [20]: 3.0; IPOHE preemergence herbicidal rating [21]: 9.0; ORYSAT preemergence herbicidal rating (ORYSAT (Rice, Tebonnet) [22]): 7.5; SETVI preemergence herbicidal rating (SETVI (Setaria viridis) [23]): 9.0; ECHCG preemergence herbicidal rating [24]: 9.0; ZEAMX preemergence herbicidal rating (ZEAMX (Corn, Field) [25]): 7.0; Postemergence herbicidal rating, ZEAMX (ZEAMX (Corn, Field) [26]): 5.0; herbicidal rating, MOOVA [27]: 9.0; Postemergence herbicidal rating, GALAP (GALAP (Galium aparine) [28]): 9.0; herbicidal rating, ORYSAT (rice tolerance) (ORYSAT (Rice, Tebonnet) [29]): 7.5 |
| C[C@H]1O[C@@H]1c1nsc2ccc(-n3c(=O)cc(C(F)(F)F)n(C)c3=O)cc12 [Compound 14, 3-[3-[(1R,2R)-1,2-epoxypropyl]-1,2-benzisothiazol-5-yl]-1-methyl-6-(trifluoromethyl)uracil] | 3.0 | 9.0 | 9.0 | 9.0 | 8.0 | 8.0 | 2.0 | 9.0 | 9.0 | 9.0 | 9.0 | 8.0 | 7.5 | 2.0 | 9.0 | 9.0 | 9.0 | 9.0 | 6.0 | 8.0 | Postemergence herbicidal rating, TRZAWR [20]: 6.5; IPOHE preemergence herbicidal rating [21]: 9.0; ORYSAT preemergence herbicidal rating (ORYSAT (Rice, Tebonnet) [22]): 9.0; SETVI preemergence herbicidal rating (SETVI (Setaria viridis) [23]): 9.0; ECHCG preemergence herbicidal rating [24]: 9.0; ZEAMX preemergence herbicidal rating (ZEAMX (Corn, Field) [25]): 8.5; Postemergence herbicidal rating, ZEAMX (ZEAMX (Corn, Field) [26]): 6.0; herbicidal rating, MOOVA [27]: 9.0; Postemergence herbicidal rating, GALAP (GALAP (Galium aparine) [28]): 9.0; herbicidal rating, ORYSAT (rice tolerance) (ORYSAT (Rice, Tebonnet) [29]): 9.0 |
